The results in this text go back to paper PMC5983644, “Expression and Interaction Analysis among Saffron ALDHs and Crocetin Dialdehyde” (International Journal of Molecular Sciences, 2018).

The experiment addresses T1, ALDH20158 (Crocus sativus, UniProt A0A3G1GZK3).
T1 sequence (A0A3G1GZK3 31-535): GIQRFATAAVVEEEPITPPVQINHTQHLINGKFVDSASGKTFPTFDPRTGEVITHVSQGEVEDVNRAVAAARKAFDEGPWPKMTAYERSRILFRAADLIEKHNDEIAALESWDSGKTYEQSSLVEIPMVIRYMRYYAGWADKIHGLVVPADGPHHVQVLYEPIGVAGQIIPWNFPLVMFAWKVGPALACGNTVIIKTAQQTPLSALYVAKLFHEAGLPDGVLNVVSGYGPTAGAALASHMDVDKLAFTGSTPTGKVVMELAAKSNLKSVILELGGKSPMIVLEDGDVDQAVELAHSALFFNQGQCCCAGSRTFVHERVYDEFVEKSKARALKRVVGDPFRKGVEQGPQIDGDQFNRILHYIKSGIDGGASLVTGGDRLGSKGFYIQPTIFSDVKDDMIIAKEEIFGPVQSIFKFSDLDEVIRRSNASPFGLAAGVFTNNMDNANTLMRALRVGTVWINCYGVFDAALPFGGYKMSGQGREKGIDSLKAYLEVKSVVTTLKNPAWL
Put plainly: LC-APCI(+)-MS of crocetin formed by crude extract of E. coli expressing the enzyme. It counts as biochemical. To be noted: NAD+, pyrophosphate buffer, NaCl, pH 7.5, 28 C, 30 min; empty-vector extract as control.

Structures are written as SMILES.

Take `C\C(C=O)=C/C=C/C(C)=C/C=C/C=C(C)/C=C/C=C(\C)C=O` [crocetin dialdehyde]: the “LC-APCI(+)-MS of crocetin formed by crude extract of E. coli expressing the enzy” value was “the same results were obtained using ALDH20158 and ALDH3898”.
